Laboratory results reported in patent publication US10940188B2, “Compounds and methods for treatment and prevention of Flavivirus infection” (priority 2016, dated 2021).
Read-outs that look alike come from different tables or passages of the source.

How the values were obtained:
[1] = tested on: ZIKV-induced cell death in human astrocytes; experiment: ATP cell viability assay for ZIKV-induced cell death, human astrocytes; assay type: cell-based
[2] = tested on: ZIKV-induced cell death in SNB-19 cells; experiment: ATP cell viability assay for ZIKV-induced cell death, SNB-19 cells; assay type: cell-based, human; details: for IC50: Homo sapiens, read-out: Cell viability (IC50, uM) SNB-19
Procedure: (§1) The reagent was reconstituted and prepared as described by the manufacturer. In order to measure the cell death caused by ZIKV infection, cells were cultured for 16 hours at 37° C. with 5% CO2 in assay plates, followed by the addition of ZIKV solution and incubation at 37° C. with 5% CO2 for 72 hours. ATPlite, the ATP monitoring reagent, was then added to the assay plates and they were incubated for 15 minutes. The resulting luminescence was measured using the ViewLux plate reader (Perkin Elmer). Data were normalized using the wells without cells as a control for 100% cell killing, and cell-containing wells without ZIKV infection were used as full cell viability (0% cell killing). […]
as §1, with “The ATPlite luminescence assay system assay kit (PerkinElmer) was used to determine cell viability. The reagent” for “The reagent”, “by the manufacture. In order” for “by the manufacturer. In order”, “followed by addition of” for “followed by the addition of”, “plates and incubated for” for “plates and they were incubated for”, “Elmer). Data was normalized using” for “Elmer). Data were normalized using”

[3] = tested on: ZIKV-induced caspase 3/7 activity in SNB-19 cells; experiment: Caspase 3/7 activity assay, ZIKV-infected SNB-19 cells; assay type: cell-based; details: ZIKV-infected SNB-19 cells; for IC50: read-out: Caspase 3 (IC50, uM) SNB-19; for Emax: read-out: Caspase 3 (efficacy, %) SNB-19
Procedure: (§2) Caspase-Glo 3/7 assay kit (catalog number G8092; Promega, Madison, Wis.) was used to detect caspase 3/7 activity. Reagents were reconstituted as described in the protocol from the manufacturer. Polystyrene plates (384-well and 1536-well; regular tissue culture treated and PDL coated) were purchased from Greiner Bio-One (Monroe, N.C.). Cells were seeded in 384- and 1536-well assay plates and cultured at 37° C. with 5% CO2 for 16 hours. ZIKV solution was added to cells, followed by incubation at 37° C. with 5% CO2 for 6 hours. Caspase-Glo 3/7 was added to each well, unless otherwise specified, and incubated at room temperature for 30 minutes. The luminescence intensity of the assay plates was measured using a ViewLux plate reader (PerkinElmer). Data were normalized by using the cell-containing wells without ZIKV as a negative control (0% induction of caspase 3/7 activity) and wells containing ZIKV infected cells that induced caspase 3/7 activity were used as a positive control (100% induction of caspase 3/7 activity). […]
(§3) Caspase-Glo 3/7 assay kit (Promega) was used to detect caspase 3/7 activity. Reagents were reconstituted as described in the protocol from the manufacturer. Cells were seeded in 384- and 1536-well assay plates and cultured at 37° C. with 5% CO2 for 16 hours. ZIKV solution was added to cells, followed by incubation at 37° C. with 5% CO2 for 6 hours. Caspase-Glo 3/7 was added to each well at a 1:1 ratio, unless otherwise specified, and incubated at room temperature for 30 minutes. The luminescence intensity of the assay plates was measured using a ViewLux plate reader (PerkinElmer). Data was normalized by using the cell-containing wells without ZIKV as a negative (0% induction of caspase 3/7 activity) control and wells containing ZIKV infected cells that induced caspase 3/7 activity were used as a positive control (100% induction of caspase 3/7 activity). […]

[4] = tested on: ZIKV-induced caspase 3/7 activity in hNPCs; experiment: Caspase 3/7 activity assay, ZIKV-infected hNPCs; assay type: cell-based; details: ZIKV-infected hNPCs; for IC50: read-out: Caspase 3 (IC50, uM) NPCs; for Emax: read-out: Caspase 3 (efficacy, %) NPCs
Procedure: Caspase-Glo 3/7 assay kit (catalog number G8092; Promega, Madison, Wis.) was used to detect caspase 3/7 activity. Reagents were reconstituted as described in the protocol from the manufacturer. Polystyrene plates (384-well and 1536-well; regular tissue culture treated and PDL coated) were purchased from Greiner Bio-One (Monroe, N.C.). Cells were seeded in 384- and 1536-well assay plates and cultured at 37° C. with 5% CO2 for 16 hours. ZIKV solution was added to cells, followed by incubation at 37° C. with 5% CO2 for 6 hours. Caspase-Glo 3/7 was added to each well, unless otherwise specified, and incubated at room temperature for 30 minutes. The luminescence intensity of the assay plates was measured using a ViewLux plate reader (PerkinElmer). Data were normalized by using the cell-containing wells without ZIKV as a negative control (0% induction of caspase 3/7 activity) and wells containing ZIKV infected cells that induced caspase 3/7 activity were used as a positive control (100% induction of caspase 3/7 activity).
Human NPCs were seeded onto PDL coated 1536-well assay plates at 250 cells per 3 μl/well and incubated at 37° C. in 5% CO2 for 16 hours. Test compounds dissolved in DMSO were transferred to assay plates at a volume of 23 nl/well by an automated pintool workstation (Wako Automation, San Diego, Calif.). Compounds were incubated with cells for 30 minutes at 37° C. in 5% CO2, immediately followed by the addition of 2 μl/well of ZIKV. Incubation time of compound-treated cells with ZIKV varied based on assay format. Experiments measuring virus-induced caspase 3/7 activity required a 6 hour incubation of ZIKV in the presence compounds at 37° C. in 5% CO2. Following this incubation, 3.5 μl/well of caspase 3/7 reagent mixture was added to assay plates. The plates were incubated for 30 minutes at room temperature, and the resultant luminescence signal was measured using a ViewLux plate reader (Perkin Elmer). Experiments measuring virus-induced cell death required a 72-hour incubation of ZIKV in the presence of compounds at 37° C. in 5% CO2. Following this incubation, 3.5 μl/well of ATP content detection reagent was added to assay plates, incubated for 30 minutes at the room temperature, and the resultant luminescence signal was measured in a ViewLux plate reader.
Caspase-Glo 3/7 assay kit (Promega) was used to detect caspase 3/7 activity. Reagents were reconstituted as described in the protocol from the manufacturer. Cells were seeded in 384- and 1536-well assay plates and cultured at 37° C. with 5% CO2 for 16 hours. ZIKV solution was added to cells, followed by incubation at 37° C. with 5% CO2 for 6 hours. Caspase-Glo 3/7 was added to each well at a 1:1 ratio, unless otherwise specified, and incubated at room temperature for 30 minutes. The luminescence intensity of the assay plates was measured using a ViewLux plate reader (PerkinElmer). Data was normalized by using the cell-containing wells without ZIKV as a negative (0% induction of caspase 3/7 activity) control and wells containing ZIKV infected cells that induced caspase 3/7 activity were used as a positive control (100% induction of caspase 3/7 activity).
Human NPCs were seeded onto PDL coated 1536-well assay plates at 250 cells per 3 μl/well and incubated at 37° C. in 5% CO2 for 16 hours. Test compounds dissolved in DMSO were transferred to assay plates at a volume of 23 nl/well by an automated pintool workstation (Wako Automation, San Diego, Calif.). Compounds were incubated with cells for 30 minutes at 37° C. in 5% CO2, immediately followed by the addition of 2 μl/well of ZIKV. Incubation time of compound-treated cells with ZIKV varied based on assay format. Experiments measuring virus induced caspase 3/7 activity required a 6 hour incubation of ZIKV in the presence compounds at 37° C. in 5% CO2. […]

[5] = tested on: ZIKV-induced caspase 3/7 activity in human astrocytes; experiment: Caspase 3/7 activity assay, ZIKV-infected human astrocytes; assay type: cell-based; details: ZIKV-infected human astrocytes; for IC50: read-out: Caspase 3 (IC50, uM) Astrocyte; for Emax: read-out: Caspase 3 (efficacy, %) Astrocyte
Procedure: as §2, §3

| Structure (SMILES) | Cell viability (efficacy, %) Astrocyte ([1]; ZIKV-infected human astrocytes) [%] | Cell viability (efficacy, %) SNB-19 ([2]; ZIKV-infected SNB-19 cells) [%] | IC50 ([3]; Homo sapiens) [µM] | Emax ([3]; Homo sapiens) [%] | IC50 ([4]; Homo sapiens) [µM] | Emax ([4]; Homo sapiens) [%] | IC50 ([5]; Astrocyte) [µM] | Emax ([5]; Astrocyte) [%] | Caspase 3 (efficacy, %) SNB-19 [3] [%] | IC50 [3] [µM] | Caspase 3 (efficacy, %) NPCs [4] [%] | IC50 [4] [µM] | Caspase 3 (efficacy, %) Astrocyte [5] [%] | IC50 [5] [µM] | IC50 ([2]; ZIKV-infected SNB-19 cells) [µM] | IC50 ([1]; Astrocyte, ZIKV-infected human astrocytes, read-out: Cell viability (IC50, uM) Astrocyte) [µM] | Cell viability (efficacy, %) Astrocyte [1] [%] | Cell viability (efficacy, %) SNB-19 [2] [%] |
| --- | --- | --- | --- | --- | --- | --- | --- | --- | --- | --- | --- | --- | --- | --- | --- | --- | --- | --- |
| O=c1c2ccccc2nc2n1CCc1c-2[nH]c2ccccc12 [Rutaecarpine] | 0.0 | 0.0 | 5.18 | 86.4 | 4.61 | 87.5 | 4.89 | 89.5 |  |  |  |  |  |  |  |  |  |  |
| O=C(Nc1ncc([N+](=O)[O-])s1)c1cccs1 [Tenonitrozole] | 0.0 | 0.0 | 1.95 | 81.7 | 1.3 | 81.5 | 2.06 | 88.8 |  |  |  |  |  |  |  |  |  |  |
| Cc1oncc1C(=O)Nc1ccc(C(F)(F)F)cc1 [Leflunomide] | 0.0 | 0.0 | 3.27 | 106 | 1.38 | 97.8 | 4.35 | 98.1 |  |  |  |  |  |  |  |  |  |  |
| O=C(/C=C/C=C/c1ccc2c(c1)OCO2)N1CCCCC1 [Piperine] | 0.0 | 0.0 | 19.5 | 75.5 | 13.8 | 66 | 20.6 | 73.9 |  |  |  |  |  |  |  |  |  |  |
| C/C(O)=C(\C#N)C(=O)Nc1ccc(C(F)(F)F)cc1 [Teriflunomide] | 0.0 | 0.0 | 1.03 | 93.1 | 0.92 | 94.5 | 1.3 | 86.9 |  |  |  |  |  |  |  |  |  |  |
| COc1cccc(NC(=O)/C=C/c2ccc(Cl)cc2)c1 [SB-366791] | 0.0 | 0.0 |  |  |  |  |  |  | 93.3 | 3.66 | 89.9 | 2.91 | 93.9 | 4.11 |  |  |  |  |
| O=C(Nc1ccc(OC(F)(F)F)cc1)c1sccc1NCc1ccnc2ccccc12 [OSI-930] | 0.0 | 71.2 | 6.9 | 114 | 6.9 | 96.9 | 8.2 | 91.5 |  |  |  |  |  |  | 3.08 |  |  |  |
| CC(=O)Oc1ccccc1C(=O)Nc1ncc([N+](=O)[O-])s1 [Nitazoxanide] | 53.6 | 62.1 | 2.24 | 86.4 | 1.26 | 82.3 | 2 | 90.3 |  |  |  |  |  |  | 23.7 | 31.6 |  |  |
| O=C(Nc1ccc(Br)cc1)c1cc(Br)cc(Br)c1O [Tribromsalan] |  |  | 7.74 | 107 | 13.8 | 108 | 6.9 | 102 |  |  |  |  |  |  |  |  | 0.0 | 0.0 |
| CCC[S+]([O-])c1ccc2[nH]c(NC(=O)OC)nc2c1 (centres unmarked) [Albendazole oxide] | 0.0 | 0.0 | 21.8 | 86 | 12.3 | 88.1 | 15.5 | 78.8 |  |  |  |  |  |  |  |  |  |  |
